Counter-ions that a name gives are not always drawn.
Tested on: Acinetobacter baumannii ATCC 17978
Experiment: Antimicrobial susceptibility testing: 90% growth inhibitory concentration (IC90) determination
Format: cell-based
Details: 90% growth inhibitory concentration; Acinetobacter baumannii ATCC17978; Iso-Sensitest broth, OD 600 nm over 16h; read-out: ATCC17978 IC90
How it was run: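 Compounds serially twofold diluted (e.g. 50 to 0.097 μM final) in Iso-Sensitest broth, inoculated at ~5×10^(5) CFU/ml, incubated at 35±2° C. OD600 read every 20 minutes over 16h. IC90 taken as concentration inhibiting 90% of growth during logarithmic phase.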

Row | Structure (SMILES) | IC90 [nM]
1 | CCc1cc(Nc2nccn3c(-c4ccc(OC)c(F)c4Cl)cnc23)ccc1C(=O)NCCCN [Example 389, N-(3-aminopropyl)-4-[[3-(2-chloro-3-fluoro-4-methoxyphenyl)imidazo[1,2-a]pyrazin-8-yl]amino]-2-ethylbenzamide; hydrochloride] | 500
2 | COc1ccc(-c2cnc3c(Nc4ccc(C(=O)NCCCCN)c(Cl)c4)nccn23)c(F)c1F [Example 515, N-(4-aminobutyl)-2-chloro-4-((3-(2,3-difluoro-4-methoxyphenyl)imidazo[1,2-a]pyrazin-8-yl)amino)benzamide hydrochloride] | 42
3 | COc1ccc(-c2cnc3c(Nc4ccc(C(=O)N(C)CC5CCOCC5)c(C)c4)nccn23)cc1F [Example 35, 4-[[3-(3-fluoro-4-methoxy-phenyl)imidazo[1,2-a]pyrazin-8-yl]amino]-N,2-dimethyl-N-(tetrahydropyran-4-ylmethyl)benzamide; 2,2,2-trifluoroacetic acid] | 1200

Same assay, conditions: Acinetobacter baumannii, ATCC17978, 16 h, 90% growth inhibitory concentration; Acinetobacter baumannii ATCC17978; Iso-Sensitest broth, OD 600 nm over 16h; read-out: ATCC17978 IC90

Row | Structure (SMILES) | IC90 [nM]
4 | CCc1cc(Nc2nccn3c(-c4ccc(OC)c(F)c4Cl)cnc23)ccc1C(=O)NCCNC(=O)[C@@H](N)CCCNC(=N)N [Example 126, N-[2-[[(2S)-2-amino-5-guanidino-pentanoyl]amino]ethyl]-4-[[3-(2-chloro-3-fluoro-4-methoxy-phenyl)imidazo[1,2-a]pyrazin-8-yl]amino]-2-ethyl-benzamide formate] | 210
5 | COc1ccc(-c2cnc3c(Nc4ccc(C(=O)NCCC5CCN(C)CC5)c(C)c4)nccn23)cc1 [Example 48] | 220
6 | COc1ccc(-c2cnc3c(Nc4ccc(C(=O)NCCCNC(=O)[C@@H]5C[C@@H](O)CN5)c(C)c4)nccn23)c(F)c1F [Example 358, (2S,4R)-N-[3-[[4-[[3-(2,3-difluoro-4-methoxyphenyl)imidazo[1,2-a]pyrazin-8-yl]amino]-2-methylbenzoyl]amino]propyl]-4-hydroxypyrrolidine-2-carboxamide] | 50

Second part, the compound after the results:

Row | IC90 [nM] | Structure (SMILES)
7 | 260 | CCc1cc(Nc2nccn3c(-c4ccc(OC)c(F)c4F)cnc23)ccc1C(=O)NC[C@H](C)N [Example 522, (S)-N-(2-aminopropyl)-4-((3-(2,3-difluoro-4-methoxyphenyl)imidazo[1,2-a]pyrazin-8-yl)amino)-2-ethylbenzamide hydrochloride]
8 | 210 | CCc1cc(Nc2nccn3c(-c4ccc(Oc5ccccn5)c(F)c4F)cnc23)ccc1C(=O)NC [Example 472, 4-[[3-[2,3-difluoro-4-(2-pyridyloxy)phenyl]imidazo [1,2-a]pyrazin-8-yl]amino]-2-ethyl-N-methyl-benzamide]
9 | 100 | CC[C@@]1(O)CN[C@H](C(=O)NCCNC(=O)c2ccc(Nc3nccn4c(-c5ccc(OCC#N)c(F)c5F)cnc34)cc2C)C1 [Example 366, (2S,4S)-N-[2-[[4-[[3-[4-(cyanomethoxy)-2,3-difluorophenyl]imidazo[1,2-a]pyrazin-8-yl]amino]-2-methylbenzoyl]amino]ethyl]-4-ethyl-4-hydroxypyrrolidine-2-carboxamide]
10 | 870 | CCc1cc(Nc2nccn3c(-c4ccc(Oc5ccccn5)c(F)c4F)cnc23)ccc1C(=O)NCCNC(=O)[C@H](N)CCCNC(=N)N [Example 422, N-[2-[[(2R)-2-amino-5-guanidino-pentanoyl]amino]ethyl]-4-[[3-[2,3-difluoro-4-(2-pyridyloxy)phenyl]imidazo [1,2-a]pyrazin-8-yl]amino]-2-ethyl-benzamide; formic acid]
11 | 24 | N#CCOc1ccc(-c2cnc3c(Nc4ccc(C(=O)NCCCCCCCN)c(Cl)c4)nccn23)c(F)c1F [Example 521, N-(7-aminoheptyl)-2-chloro-4-((3-(4-(cyanomethoxy)-2,3-difluorophenyl)imidazo[1,2-a]pyrazin-8-yl)amino)benzamide]
12 | 68 | COc1ccc(-c2cnc3c(Nc4ccc(C(=O)N[C@H](C)CNC(C)=N)c(C)c4)nccn23)c(F)c1F [Example 486, 4-[[3-(2,3-difluoro-4-methoxyphenyl)imidazo[1,2-a]pyrazin-8-yl]amino]-#N!- [(2#R!)-1-(ethanimidoylamino)propan-2-yl]-2-methylbenzamide;formic acid]

Source: patent US20230012368A1 (Hoffmann-La Roche Inc., priority 2018, published 2023)
